In US11419865B2, “Method for inducing a sustained immune response” (Cytocom Inc., priority 2016, dated 2022):
Read-outs that look alike come from different tables or passages of the source.

Tests used:
children with autism = experiment: autism, 155 children in 10 studies; type: in vivo, human
From the text: 155 children participated in 10 studies; 27 received placebo. […].

[1] = system: autistic children, lymphocyte subsets; experiment: behavioral and immunological assessment in autism during double-blind naltrexone treatment; type: in vivo, human
From the text: Opioid-immune interactions in autism: behavioral and immunological assessment during a double-blind treatment with naltrexone.
Changes in natural killer cells and activity were inversely related to plasma beta-endorphin levels.

[2] = system: patients with active Crohn's disease; experiment: 12-week study of 4.5 mg naltrexone/day in active Crohn's disease (17 patients); type: in vivo, human
Method: . Infliximab was not allowed for a minimum of 8 weeks prior to study initiation. Other therapy for Crohn's disease that was at a stable dose for 4 weeks prior to enrollment was continued at the same doses. Patients completed the inflammatory bowel disease questionnaire (IBDQ) and the short-form (SF-36) quality of life surveys and CDAI scores were assessed pretreatment, every 4 weeks on therapy and 4 weeks after completion of the study drug. Drug was administered by mouth each evening for a 12-week period. RESULTS: Seventeen patients with a mean CDAI score of 356+/−27 were enrolled.

[3] = system: subjects with active Crohn's disease; experiment: randomized placebo-controlled study, forty subjects with active Crohn's disease; type: in vivo, human
From the text: Forty subjects with active Crohn's disease were enrolled in the study. […] Providers and patients were masked to treatment assignment. The primary outcome was the proportion of subjects in each arm with a 70-point decline in Crohn's Disease Activity Index score (CDAI). The secondary outcome included mucosal healing based upon colonoscopy appearance and histology. […].

women with fibromyalgia = experiment: randomized, double blind, placebo-controlled crossover study, 31 women with fibromyalgia; type: in vivo, human; settings: 4.5 mg daily
From the text: Thirty-one women with fibromyalgia participated in the randomized, double blind, placebo-controlled, and counterbalanced, crossover study. […]. An intensive longitudinal design was used to measure daily levels of pain. […]; P=0.016). […]. […] […]; P=0.016). […].

[4] = system: patients with primary progressive multiple sclerosis (PPMS); experiment: six month phase II multicenter pilot trial in primary progressive multiple sclerosis, 40 patients; type: in vivo, human
Method: […]. The primary end points were safety and tolerability. Secondary outcomes were efficacy on spasticity, pain, fatigue, depression, and quality of life. Clinical and biochemical evaluations were serially performed. Protein concentration of beta-endorphins (BE) and mRNA levels and allelic variants of the mu-opioid receptor gene (OPRM1) were analyzed.

MS patients = experiment: retrospective chart review of MS patients receiving LDN; type: in vivo, human
From the text: This study investigated the safety, tolerability, and benefits (fatigue, reduction) of LDN in patients with MS. It reviewed the number of patients who stopped taking LDN and if there were specific reasons for stopping the LDN. The frequency and variety of side effects that were specific to LDN use are reported. […] 1, 2005 and May 31, 2012. There were 215 MS patients having exposure to LDN during the time of this study. […] In addition to the assessment we review Brain MRIs and Spinal Cord MRIs that were obtained as part of the clinical status of the patient and standard of care.
It reviewed the number of patients who stopped taking IMMEDIATE RELEASE NALTREXONE (LDN) and if there were specific reasons for stopping the IMMEDIATE RELEASE NALTREXONE (LDN). […] 1, 2005 and May 31, 2012. […]. In addition to the assessment we review Brain MRIs and Spinal Cord MRIs that were obtained as part of the clinical status of the patient and standard of care. […].

[5] = system: patients diagnosed with fibromyalgia; experiment: open label single center study, twenty-five fibromyalgia patients; type: in vivo, human; settings: 4.5 mg
Fibromyalgia patient = experiment: Fibromyalgia and Epstein Barr case report; type: in vivo, human
From the text: A person was diagnosed in 1998 Fibromyalgia and Epstein Barr, had to quit work, in pain and very depressed. Various treatments over the years for pain prescribed and other problems with the disease. […]

ovarian cancer cells = ovarian cancer cells treated with different dosing regimens of naltrexone; type: cell-based
Method: […]. They also prevent the adhesion of cancer cells to bone marrow stromal cells and thereby inhibit the enhanced secretion of migratory factors, such as interleukin (IL)-6, TNF-α, and vascular endothelial growth factor. In research experiments, ovarian cancer cells were treated with either water as the control or different dosing regimens of naltrexone to replicate high dose versus Immediate release dosing of naltrexone.

HIV = settings: 3 mg compounded, with ART, cited from earlier work
cancer patients = settings: cited from earlier work
[6] = system: Autoimmune Hepatitis-Type 1 patient; experiment: Autoimmune Hepatitis-Type 1 case report; settings: 4.5 mg nightly
[7] = system: A549 (lung) and HCT116 (CRC); experiment: continuous 48 h exposure, lung and CRC cells

O=C1CC[C@@]2(O)[C@H]3Cc4ccc(O)c5c4[C@@]2(CCN3CC2CC2)[C@H]1O5 [Immediate release naltrexone, naltrexone]
children with statistically significant improvement in symptoms of irritability and hyperactivity (children with autism; 98 of the 128 that received naltrexone): 77%
side effects and tolerability (children with autism; in vivo): Side effects were mild and the drug was generally well tolerated
T-cytotoxic-suppressor (CD4−CD8+) [1]: significant reduction
T-helper-inducers (CD4+CD8−) [1]: significant increase
CDAI scores ([2]; 4.5 mg/day by mouth each evening, 12 weeks, baseline mean 356+/−27, P=0.01): decreased significantly
laboratory abnormalities ([2]; 4.5 mg/day, 12 weeks): No laboratory abnormalities were noted
patients with response to therapy ([2]; 4.5 mg/day, 12 weeks): Eighty-nine
patients achieving remission ([2]; 4.5 mg/day, 12 weeks, P<0.001): 67%
CDAI scores after end of therapy ([2]; 4 weeks after completing therapy): remained lower than baseline
quality of life surveys (IBDQ, SF-36) ([2]; compared with baseline): Improvement was recorded in both quality of life surveys
subjects with at least a 70-point decline in CDAI scores ([3]; 4.5-mg daily oral, placebo 40%, p=0.009): Eighty-eight
subjects achieving remission with a CDEIS score<6 ([3]; after 12 weeks, placebo 8%): 33%
subjects with endoscopic response (5-point decline in CDEIS) ([3]; after 12 weeks, placebo 28%, p=0.008): 78%
side effects ([3]; vs placebo): Fatigue was the only side effect reported that was significantly greater in subjects receiving placebo
fatigue or sleep (women with fibromyalgia): not improved fatigue or sleep
tolerability and side effects (women with fibromyalgia): rated equally tolerable as placebo, and no serious side effects were reported
mood (women with fibromyalgia; P=0.039): improved mood
general satisfaction with life (women with fibromyalgia; P=0.045): improved general satisfaction with life
participants meeting the criteria for response (women with fibromyalgia; placebo 11%, P=0.05): Thirty-two
Neurological disability ([4]; 40 patients): progressed in only one patient
dropouts and major adverse events ([4]; 40 patients): Five dropouts and two major adverse events occurred
spasticity ([4]; end of the six month trial): significant reduction of spasticity
beta-endorphins (BE) concentration ([4]; human, in vivo): increased during the trial
safety and tolerability ([4]; human, in vivo): safe and well tolerated
quality of life over a long period of time (MS patients; 215 MS patients exposed): improvement in quality of life
Brain MRI scans showing improvement (MS patients; of 215 patients): 14 MRI scans
Brain MRI scans slightly worse (MS patients; of 215 patients, new but inactive lesion(s)): 28 MRI scans
average improvement in FIQR in eleven patients (50%) [5]: 41%
decrease of pain level, person, Fibromyalgia and Epstein Barr (Fibromyalgia patient; 0.5 mg in 2004 increased to 3 mg): 90%
antidepressant use, person, Fibromyalgia (Fibromyalgia patient; 0.5 mg increased to 3 mg): no longer need to take anti-depressants
growth of cancer cells (ovarian cancer cells; Immediate release low or short-term dosing, control water): growth of cancer cells was slowed
growth of cancer cells (ovarian cancer cells; high dose of naltrexone): cancer cells were stimulated and grew faster
improvement in CD4 count vs control group (HIV; at 6 months, p=0.041, 51 vs 49 subjects): significantly greater than the control group
improvement in CD4 count vs control group (HIV; at 9 months, p=0.067): marginally
Improvement in CD4% (HIV; throughout treatment): not statistically significant
pain scores NRS (out of 10), person one, CRPS and EDS (CRPS patients; 3 mg once a day, then 4.5 mg per day, from (7-10)/10): 3-5
allodynia and sensitivity, person one, CRPS (CRPS patients; 3 mg then 4.5 mg per day): decrease in allodynia, as well as a decrease in sensitivity to touch and temperature change
dystonia, initial treatment, person one, CRPS (CRPS patients; 3 mg then 4.5 mg per day, before surgery): no effect on the dystonia
side effects, person three, CRPS (CRPS patients; 4.5 mg per day): No side effects
average pain on the Numeric Rating Scale (NRS), person three, CRPS (CRPS patients; 4.5 mg per day at night, before 8 to 10): 5 to 6
requirements for intravenous ketamine infusions, person three, CRPS (CRPS patients; 4.5 mg per day, by March of 2012, 6 week intervals): not as frequent
walking, person three, CRPS (CRPS patients; 4.5 mg per day, cane used continuously since 2006): able to walk without a cane
dystonic spasms, person three, CRPS (CRPS patients; 4.5 mg per day, within 2 months): dystonic spasms discontinued
post-operative pain NRS (out of 10), person one, CRPS (CRPS patients; 3 weeks after resuming drug): 4-6
side effects, person one, CRPS (CRPS patients; 18 months): No side effects
fixed dystonia at cast removal, person one, CRPS (CRPS patients; after ankle reinforcement surgery, on drug): remission of the leg's fixed dystonia
CRPS symptoms, person one (CRPS patients; maintained for 18 months): CRPS symptoms have resolved completely
disease course, person, adenocarcinoma of the pancreas with liver metastases (cancer patients; 4.5 mg once per day at bedtime with i.v. and oral ALA, selenium, silymarin, diet): comparatively stable disease for more than a 3-year period and an improved quality of life
follow-up status, person, Follicular Lymphoma (cancer patients; 2007 report): remains asymptomatic from their disease, 1 year after their last CT/PET imaging
disease outcome, person, Follicular Lymphoma (cancer patients; daily in the evening, after 6 months, not compliant with diet, supplement, ALA): clinical and radiological remission
side effects, person, Autoimmune Hepatitis-Type 1 [6]: vivid dreams and mild indigestion in the first two weeks
effect on A549 and HCT116 [7]: no effect
